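Values below derive from 48-hour exposures of cells grown in 96-well plates, with endpoints linearly interpolated between the two concentrations bracketing the appropriate inhibition level. GI50 = concentration required for 50% inhibition of growth.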 Activity calls are given as the source filed them. Cut-off read from the data, not from the text of the source: active = GI50 up to about 1.1 µM and inactive = higher.
Assays:
Experiment in all cases: DTP human tumour cell line panel, 48 h
A549 = test system: A549
ACHN = test system: ACHN
HCT-116 = test system: HCT-116
HOP-62 = test system: HOP-62
HT-29 = test system: HT-29
KM12 = test system: KM12
Malme-3M = test system: Malme-3M
NCI-H23 = test system: NCI-H23
OVCAR-8 = test system: OVCAR-8
RXF 393 = test system: RXF 393
SF-268 = test system: SF-268
SF-539 = test system: SF-539
SK-MEL-2 = test system: SK-MEL-2
SK-MEL-5 = test system: SK-MEL-5
SK-OV-3 = test system: SK-OV-3
SN12C = test system: SN12C
UACC-62 = test system: UACC-62
NCI/ADR-RES = test system: NCI/ADR-RES
MDA-N = test system: MDA-N
Hs-578T = test system: Hs-578T

Measured: GI50

CCOC(=O)N1CCc2cc(OC)c(OC)cc2/C1=C/c1ccc(OC)c(OC)c1
inactive: A549 43.1 µM | ACHN 52.2 µM | HCT-116 38.4 µM | HOP-62 84.5 µM | HT-29 28.4 µM | KM12 45.3 µM | Malme-3M 20 µM | NCI-H23 36.1 µM | OVCAR-8 > 10 µM | RXF 393 37.9 µM | SF-268 79.6 µM | SF-539 > 100 µM | SK-MEL-2 51.6 µM | SK-MEL-5 20.9 µM | SK-OV-3 > 100 µM | SN12C 35.6 µM | UACC-62 55.8 µM

O=C1Sc2sc(=S)sc2SC1c1ccccc1 (stereo not given)
inactive: A549 > 100 µM | HCT-116 > 59 µM | HOP-62 > 100 µM | HT-29 40.8 µM | KM12 > 80.9 µM | Malme-3M > 49.3 µM | NCI-H23 82.6 µM | NCI/ADR-RES 40.5 µM | OVCAR-8 59 µM | RXF 393 28.4 µM | SF-268 46.6 µM | SF-539 74 µM | SK-MEL-2 > 65 µM | SK-MEL-5 > 100 µM | SK-OV-3 > 100 µM | SN12C > 89.7 µM | UACC-62 26.8 µM

COc1cccc(/C=C2\S/C(=N/Nc3nc(C)c(C)s3)NC2=O)c1O
inactive: A549 > 100 µM | ACHN > 100 µM | HCT-116 > 100 µM | HOP-62 > 100 µM | HT-29 > 100 µM | KM12 > 100 µM | MDA-N > 100 µM | NCI-H23 > 100 µM | NCI/ADR-RES > 100 µM | OVCAR-8 36.6 µM | RXF 393 79.4 µM | SF-268 > 100 µM | SF-539 > 100 µM | SK-MEL-2 > 100 µM | SK-MEL-5 50.2 µM | SK-OV-3 > 100 µM | SN12C > 100 µM | UACC-62 69.5 µM

CN1C(=O)N(C)C2(CCN(CCCCCCF)CC2)C1=O
inactive: A549 > 100 µM | ACHN > 100 µM | HCT-116 > 100 µM | HOP-62 > 100 µM | HT-29 > 100 µM | KM12 > 100 µM | MDA-N > 100 µM | Malme-3M > 100 µM | NCI-H23 > 100 µM | NCI/ADR-RES > 100 µM | OVCAR-8 > 100 µM | RXF 393 > 100 µM | SF-268 > 100 µM | SF-539 > 100 µM | SK-MEL-5 > 100 µM | SK-OV-3 > 100 µM | SN12C > 100 µM | UACC-62 > 100 µM

Cc1nn(C(=O)Cc2ccccc2)c2c1C(c1ccc(Cl)cc1)SC(=N)N2 (stereo not given)
inactive: A549 > 100 µM | ACHN > 100 µM | HCT-116 > 100 µM | HOP-62 > 100 µM | HT-29 > 100 µM | Hs-578T > 100 µM | KM12 > 100 µM | Malme-3M > 100 µM | NCI-H23 > 100 µM | OVCAR-8 > 100 µM | SF-268 > 100 µM | SF-539 > 100 µM | SK-MEL-5 > 100 µM | SK-OV-3 > 100 µM | SN12C > 100 µM | UACC-62 > 100 µM

SC1=NC2=C(CSC/C2=C\c2ccccc2)C(c2ccccc2)N1 (stereo not given)
inactive: A549 38.5 µM | ACHN 49.7 µM | HCT-116 29.5 µM | HOP-62 > 100 µM | HT-29 32.6 µM | KM12 41 µM | MDA-N 31.3 µM | Malme-3M 28.6 µM | NCI-H23 31.9 µM | NCI/ADR-RES 47.5 µM | OVCAR-8 42.2 µM | RXF 393 27.9 µM | SF-268 64.6 µM | SF-539 76.6 µM | SK-MEL-2 49.3 µM | SK-MEL-5 12.1 µM | SK-OV-3 92.7 µM | SN12C 38.1 µM | UACC-62 27.9 µM

C=C1C(=O)OC2CC(C)C(C(CC(C)=O)OC(C)=O)=CCC12 (stereo not given)
inactive: A549 28.2 µM | ACHN 9.27 µM | HCT-116 1.79 µM | HOP-62 21 µM | HT-29 8.41 µM | Hs-578T > 100 µM | KM12 18.6 µM | Malme-3M 2.02 µM | NCI-H23 17.2 µM | NCI/ADR-RES 13.8 µM | OVCAR-8 18.9 µM | RXF 393 15.9 µM | SF-268 22.5 µM | SF-539 15.3 µM | SK-MEL-2 18 µM | SK-MEL-5 14.2 µM | SK-OV-3 37.9 µM | SN12C 4.27 µM | UACC-62 11.7 µM

Nc1cc(N2CCOCC2)nc(=O)n1-c1ccccc1
inactive: A549 > 100 µM | ACHN > 100 µM | HCT-116 > 100 µM | HOP-62 > 100 µM | HT-29 > 100 µM | KM12 > 100 µM | MDA-N > 100 µM | NCI-H23 > 100 µM | NCI/ADR-RES > 100 µM | OVCAR-8 > 100 µM | SF-539 > 100 µM | SK-MEL-2 > 100 µM | SK-MEL-5 > 100 µM | SK-OV-3 > 100 µM | SN12C > 100 µM | UACC-62 > 100 µM
